Results published in ChEMBL document CHEMBL1926576, “Fragment based lead discovery of small molecule inhibitors for the EPHA4 receptor tyrosine kinase” (Eur J Med Chem, 2012).

Tests used:
[1] = molecular target: Serine/threonine-protein kinase OSR1 (Homo sapiens) (UniProt O95747); assay: Inhibition of OSR1 assessed as residual activity at 10 uM using [33P-ATP] by radiometric filter binding assay
[2] = molecular target: MAP kinase-activated protein kinase 5 (Homo sapiens) (UniProt Q8IW41); assay: Inhibition of PRAK assessed as residual activity at 10 uM using [33P-ATP] by radiometric filter binding assay
[3] = molecular target: Homeodomain-interacting protein kinase 2 (Homo sapiens) (UniProt Q9H2X6); assay: Inhibition of HIPK2 assessed as residual activity at 10 uM using [33P-ATP] by radiometric filter binding assay
[4] = molecular target: Tyrosine-protein kinase Yes (Homo sapiens) (UniProt P07947); assay: Inhibition of YES1 assessed as residual activity at 10 uM using [33P-ATP] by radiometric filter binding assay
[5] = molecular target: Testis-specific serine/threonine-protein kinase 1 (Homo sapiens) (UniProt Q9BXA7); assay: Inhibition of TSSK1 assessed as residual activity at 10 uM using [33P-ATP] by radiometric filter binding assay
[6] = molecular target: Tau-tubulin kinase 1 (Homo sapiens) (UniProt Q5TCY1); assay: Inhibition of TTBK1 assessed as residual activity at 10 uM using [33P-ATP] by radiometric filter binding assay
[7] = molecular target: SRSF protein kinase 1 (Homo sapiens) (UniProt Q96SB4); assay: Inhibition of SRPK1 assessed as residual activity at 10 uM using [33P-ATP] by radiometric filter binding assay
[8] = molecular target: Insulin receptor-related protein (Homo sapiens) (UniProt P14616); assay: Inhibition of IRR assessed as residual activity at 10 uM using [33P-ATP] by radiometric filter binding assay
[9] = molecular target: Interleukin-1 receptor-associated kinase 4 (Homo sapiens) (UniProt Q9NWZ3); assay: Inhibition of IRAK4 assessed as residual activity at 10 uM using [33P-ATP] by radiometric filter binding assay
[10] = molecular target: Protein-tyrosine kinase 6 (Homo sapiens) (UniProt Q13882); assay: Inhibition of BRK assessed as residual activity at 10 uM using [33P-ATP] by radiometric filter binding assay
[11] = molecular target: Serine/threonine-protein kinase Chk2 (Homo sapiens) (UniProt O96017); assay: Inhibition of CHK2 assessed as residual activity at 10 uM using [33P-ATP] by radiometric filter binding assay
[12] = molecular target: Protein kinase C alpha type (Homo sapiens) (UniProt P17252); assay: Inhibition of PKCalpha assessed as residual activity at 10 uM using [33P-ATP] by radiometric filter binding assay
[13] = molecular target: Receptor-interacting serine/threonine-protein kinase 2 (Homo sapiens) (UniProt O43353); assay: Inhibition of RIPK2 assessed as residual activity at 10 uM using [33P-ATP] by radiometric filter binding assay
[14] = molecular target: Serine/threonine-protein kinase Nek6 (Homo sapiens) (UniProt Q9HC98); assay: Inhibition of NEK6 assessed as residual activity at 10 uM using [33P-ATP] by radiometric filter binding assay
[15] = molecular target: MAP/microtubule affinity-regulating kinase 3 (Homo sapiens) (UniProt P27448); assay: Inhibition of MARK3 assessed as residual activity at 10 uM using [33P-ATP] by radiometric filter binding assay
[16] = molecular target: MAP/microtubule affinity-regulating kinase 4 (Homo sapiens) (UniProt Q96L34); assay: Inhibition of MARK4 assessed as residual activity at 10 uM using [33P-ATP] by radiometric filter binding assay
[17] = molecular target: Serine/threonine-protein kinase 26 (Homo sapiens) (UniProt Q9P289); assay: Inhibition of MST4 assessed as residual activity at 10 uM using [33P-ATP] by radiometric filter binding assay
[18] = Inhibition of VEGFR assessed as residual activity at 10 uM using [33P-ATP] by radiometric filter binding assay
[19] = molecular target: Dual specificity testis-specific protein kinase 1 (Homo sapiens) (UniProt Q15569); assay: Inhibition of TESK1 assessed as residual activity at 10 uM using [33P-ATP] by radiometric filter binding assay
[20] = molecular target: Dual specificity tyrosine-phosphorylation-regulated kinase 3 (Homo sapiens) (UniProt O43781); assay: Inhibition of DYRK3 assessed as residual activity at 10 uM using [33P-ATP] by radiometric filter binding assay
[21] = molecular target: Rho-associated protein kinase 2 (Homo sapiens) (UniProt O75116); assay: Inhibition of ROCK2 assessed as residual activity at 10 uM using [33P-ATP] by radiometric filter binding assay
[22] = molecular target: Death-associated protein kinase 1 (Homo sapiens) (UniProt P53355); assay: Inhibition of DAPK1 assessed as residual activity at 10 uM using [33P-ATP] by radiometric filter binding assay
[23] = molecular target: Mitogen-activated protein kinase kinase kinase kinase 2 (Homo sapiens) (UniProt Q12851); assay: Inhibition of GCK assessed as residual activity at 10 uM using [33P-ATP] by radiometric filter binding assay
[24] = molecular target: Glycogen synthase kinase-3 beta (Homo sapiens) (UniProt P49841); assay: Inhibition of GSK3b assessed as residual activity at 10 uM using [33P-ATP] by radiometric filter binding assay
[25] = molecular target: MAP kinase-activated protein kinase 2 (Homo sapiens) (UniProt P49137); assay: Inhibition of MAPKAP-K2 assessed as residual activity at 10 uM using [33P-ATP] by radiometric filter binding assay
[26] = molecular target: 3-phosphoinositide-dependent protein kinase 1 (Homo sapiens) (UniProt O15530); assay: Inhibition of PDK1 assessed as residual activity at 10 uM using [33P-ATP] by radiometric filter binding assay
[27] = molecular target: Dual specificity mitogen-activated protein kinase kinase 6 (Homo sapiens) (UniProt P52564); assay: Inhibition of MKK6 assessed as residual activity at 10 uM using [33P-ATP] by radiometric filter binding assay
[28] = molecular target: Serine/threonine-protein kinase BRSK2 (Homo sapiens) (UniProt Q8IWQ3); assay: Inhibition of BRSK2 assessed as residual activity at 10 uM using [33P-ATP] by radiometric filter binding assay
[29] = molecular target: Cyclin-dependent kinase 2/cyclin A (Homo sapiens) (UniProt P24941+P20248+P78396); assay: Inhibition of CDK2/Cyclin A assessed as residual activity at 10 uM using [33P-ATP] by radiometric filter binding assay; assay type: protein-complex assay
[30] = molecular target: Serine/threonine-protein kinase D1 (Homo sapiens) (UniProt Q15139); assay: Inhibition of PKD1 assessed as residual activity at 10 uM using [33P-ATP] by radiometric filter binding assay
[31] = Inhibition of PHK assessed as residual activity at 10 uM using [33P-ATP] by radiometric filter binding assay
[32] = molecular target: Mitogen-activated protein kinase kinase kinase 11 (Homo sapiens) (UniProt Q16584); assay: Inhibition of MLK3 assessed as residual activity at 10 uM using [33P-ATP] by radiometric filter binding assay
[33] = molecular target: Serine/threonine-protein kinase TAO1 (Homo sapiens) (UniProt Q7L7X3); assay: Inhibition of TAO1 assessed as residual activity at 10 uM using [33P-ATP] by radiometric filter binding assay

Homeodomain-interacting protein kinase 2 (Homo sapiens), sequence (Q9H2X6 whole entry, looked up): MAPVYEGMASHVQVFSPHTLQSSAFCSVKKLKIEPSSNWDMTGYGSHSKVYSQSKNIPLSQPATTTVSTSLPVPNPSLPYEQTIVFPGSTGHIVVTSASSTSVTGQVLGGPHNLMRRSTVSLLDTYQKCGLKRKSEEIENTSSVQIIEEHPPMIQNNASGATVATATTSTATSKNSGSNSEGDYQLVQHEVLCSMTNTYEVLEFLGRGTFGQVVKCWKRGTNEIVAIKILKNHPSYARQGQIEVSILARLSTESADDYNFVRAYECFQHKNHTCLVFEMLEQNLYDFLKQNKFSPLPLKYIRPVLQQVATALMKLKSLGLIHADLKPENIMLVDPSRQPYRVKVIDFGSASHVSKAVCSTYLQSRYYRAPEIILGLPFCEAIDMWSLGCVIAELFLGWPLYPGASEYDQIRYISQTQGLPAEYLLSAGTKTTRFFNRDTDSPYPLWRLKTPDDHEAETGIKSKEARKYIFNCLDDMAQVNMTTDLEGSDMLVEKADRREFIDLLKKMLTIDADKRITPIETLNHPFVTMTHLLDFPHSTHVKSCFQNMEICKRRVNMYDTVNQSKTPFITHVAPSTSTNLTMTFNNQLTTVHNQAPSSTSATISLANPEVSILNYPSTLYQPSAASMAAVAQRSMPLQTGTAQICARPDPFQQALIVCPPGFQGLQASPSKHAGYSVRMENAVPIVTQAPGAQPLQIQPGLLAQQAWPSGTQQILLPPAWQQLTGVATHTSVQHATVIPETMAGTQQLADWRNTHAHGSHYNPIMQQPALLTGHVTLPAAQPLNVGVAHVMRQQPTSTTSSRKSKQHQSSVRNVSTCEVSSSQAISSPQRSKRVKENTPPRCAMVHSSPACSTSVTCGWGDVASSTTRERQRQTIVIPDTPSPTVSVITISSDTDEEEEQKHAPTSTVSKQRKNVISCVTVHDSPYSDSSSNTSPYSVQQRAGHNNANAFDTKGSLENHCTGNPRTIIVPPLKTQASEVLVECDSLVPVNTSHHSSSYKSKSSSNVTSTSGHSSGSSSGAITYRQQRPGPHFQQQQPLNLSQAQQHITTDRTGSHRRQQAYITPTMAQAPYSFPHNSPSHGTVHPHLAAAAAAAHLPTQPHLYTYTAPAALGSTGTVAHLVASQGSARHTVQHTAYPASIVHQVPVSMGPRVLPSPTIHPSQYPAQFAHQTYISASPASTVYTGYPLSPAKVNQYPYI
Serine/threonine-protein kinase Nek6 (Homo sapiens), sequence (Q9HC98 whole entry): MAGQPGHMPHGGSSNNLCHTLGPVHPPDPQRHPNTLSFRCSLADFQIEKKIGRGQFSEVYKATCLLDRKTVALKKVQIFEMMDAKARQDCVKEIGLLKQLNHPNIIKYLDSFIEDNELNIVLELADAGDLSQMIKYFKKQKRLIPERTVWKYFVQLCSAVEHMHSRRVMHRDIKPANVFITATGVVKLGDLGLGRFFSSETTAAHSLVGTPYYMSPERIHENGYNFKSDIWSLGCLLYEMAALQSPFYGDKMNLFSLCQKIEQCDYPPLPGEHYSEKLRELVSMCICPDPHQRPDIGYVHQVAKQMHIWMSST
Mitogen-activated protein kinase kinase kinase kinase 2 (Homo sapiens), sequence (Q12851 whole entry): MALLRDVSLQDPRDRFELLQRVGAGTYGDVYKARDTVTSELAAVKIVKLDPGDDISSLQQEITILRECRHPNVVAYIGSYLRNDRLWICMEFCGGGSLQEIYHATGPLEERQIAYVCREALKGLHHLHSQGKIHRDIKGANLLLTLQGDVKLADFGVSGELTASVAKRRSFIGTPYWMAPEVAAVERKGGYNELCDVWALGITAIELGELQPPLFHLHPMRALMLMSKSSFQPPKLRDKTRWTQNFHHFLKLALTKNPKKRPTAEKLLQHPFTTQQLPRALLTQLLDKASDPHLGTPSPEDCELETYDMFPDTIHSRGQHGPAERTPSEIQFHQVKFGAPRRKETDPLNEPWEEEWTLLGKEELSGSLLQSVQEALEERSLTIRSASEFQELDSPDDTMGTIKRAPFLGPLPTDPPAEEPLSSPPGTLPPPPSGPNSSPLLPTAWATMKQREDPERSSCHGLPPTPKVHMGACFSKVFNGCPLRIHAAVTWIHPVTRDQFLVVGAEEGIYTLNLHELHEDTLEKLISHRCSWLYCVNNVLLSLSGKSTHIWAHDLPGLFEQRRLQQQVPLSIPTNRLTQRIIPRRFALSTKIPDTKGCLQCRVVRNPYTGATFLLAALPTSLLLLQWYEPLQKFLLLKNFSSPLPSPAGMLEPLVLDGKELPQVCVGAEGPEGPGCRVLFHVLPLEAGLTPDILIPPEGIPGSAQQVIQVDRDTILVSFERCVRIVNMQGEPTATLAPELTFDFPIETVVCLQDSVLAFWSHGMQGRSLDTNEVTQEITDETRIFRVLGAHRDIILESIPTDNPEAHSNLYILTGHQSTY
Tyrosine-protein kinase Yes (Homo sapiens), sequence (P07947 2-543 limits assumed): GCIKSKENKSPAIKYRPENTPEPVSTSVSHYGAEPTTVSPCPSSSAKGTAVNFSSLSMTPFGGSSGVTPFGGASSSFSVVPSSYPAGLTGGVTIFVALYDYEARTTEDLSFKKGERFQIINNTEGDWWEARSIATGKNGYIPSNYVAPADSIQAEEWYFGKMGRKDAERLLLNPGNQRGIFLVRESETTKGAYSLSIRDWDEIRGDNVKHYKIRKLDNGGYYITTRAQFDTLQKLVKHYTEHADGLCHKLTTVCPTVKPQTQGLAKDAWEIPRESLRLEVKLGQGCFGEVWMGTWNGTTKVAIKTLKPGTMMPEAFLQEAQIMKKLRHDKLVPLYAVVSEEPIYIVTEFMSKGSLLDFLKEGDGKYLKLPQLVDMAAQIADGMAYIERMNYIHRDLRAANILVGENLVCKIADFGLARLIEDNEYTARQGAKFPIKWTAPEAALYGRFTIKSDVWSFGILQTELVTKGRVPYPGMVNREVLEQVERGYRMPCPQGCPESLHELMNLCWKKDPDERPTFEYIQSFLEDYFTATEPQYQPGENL
3-phosphoinositide-dependent protein kinase 1 (Homo sapiens), sequence (O15530 whole entry, looked up): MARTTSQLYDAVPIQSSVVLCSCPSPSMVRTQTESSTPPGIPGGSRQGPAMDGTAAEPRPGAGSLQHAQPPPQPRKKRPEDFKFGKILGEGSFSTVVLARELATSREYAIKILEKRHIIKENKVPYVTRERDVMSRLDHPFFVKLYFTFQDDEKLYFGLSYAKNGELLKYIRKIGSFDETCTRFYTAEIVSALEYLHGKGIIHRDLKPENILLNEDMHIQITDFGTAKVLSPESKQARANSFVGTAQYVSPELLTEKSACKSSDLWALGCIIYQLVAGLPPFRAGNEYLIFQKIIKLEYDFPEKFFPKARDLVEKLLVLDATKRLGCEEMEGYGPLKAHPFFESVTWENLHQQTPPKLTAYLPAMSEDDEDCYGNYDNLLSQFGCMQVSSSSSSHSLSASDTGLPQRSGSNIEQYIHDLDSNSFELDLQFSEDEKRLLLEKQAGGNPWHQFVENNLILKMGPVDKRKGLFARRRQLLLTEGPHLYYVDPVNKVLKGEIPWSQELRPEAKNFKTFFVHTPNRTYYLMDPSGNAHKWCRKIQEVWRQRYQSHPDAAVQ
Testis-specific serine/threonine-protein kinase 1 (Homo sapiens), sequence (Q9BXA7 whole entry): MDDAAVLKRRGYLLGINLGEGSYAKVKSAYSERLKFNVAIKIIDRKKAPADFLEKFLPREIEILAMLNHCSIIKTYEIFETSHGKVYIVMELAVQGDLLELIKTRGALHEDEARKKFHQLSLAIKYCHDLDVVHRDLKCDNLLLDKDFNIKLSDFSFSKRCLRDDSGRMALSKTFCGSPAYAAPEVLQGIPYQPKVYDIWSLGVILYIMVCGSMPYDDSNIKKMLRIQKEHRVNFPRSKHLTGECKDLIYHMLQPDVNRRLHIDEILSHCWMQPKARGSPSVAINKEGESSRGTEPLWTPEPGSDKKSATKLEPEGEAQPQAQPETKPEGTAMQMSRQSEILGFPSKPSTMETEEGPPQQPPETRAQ
Serine/threonine-protein kinase Chk2 (Homo sapiens), sequence (O96017 whole entry): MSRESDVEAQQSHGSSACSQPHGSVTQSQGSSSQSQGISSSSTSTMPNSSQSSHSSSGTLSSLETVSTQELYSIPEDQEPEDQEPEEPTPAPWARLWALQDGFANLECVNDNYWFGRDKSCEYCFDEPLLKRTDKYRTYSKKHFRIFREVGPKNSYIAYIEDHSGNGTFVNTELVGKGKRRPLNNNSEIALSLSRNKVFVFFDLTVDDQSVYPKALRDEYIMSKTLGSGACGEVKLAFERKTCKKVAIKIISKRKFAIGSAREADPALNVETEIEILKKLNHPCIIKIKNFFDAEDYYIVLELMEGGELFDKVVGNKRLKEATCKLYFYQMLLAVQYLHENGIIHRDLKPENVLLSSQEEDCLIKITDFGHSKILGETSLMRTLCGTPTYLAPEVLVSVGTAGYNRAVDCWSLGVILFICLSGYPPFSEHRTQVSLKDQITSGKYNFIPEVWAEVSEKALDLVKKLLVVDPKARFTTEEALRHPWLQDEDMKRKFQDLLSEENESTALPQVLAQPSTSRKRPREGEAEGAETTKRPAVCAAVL
Interleukin-1 receptor-associated kinase 4 (Homo sapiens), sequence (Q9NWZ3 whole entry): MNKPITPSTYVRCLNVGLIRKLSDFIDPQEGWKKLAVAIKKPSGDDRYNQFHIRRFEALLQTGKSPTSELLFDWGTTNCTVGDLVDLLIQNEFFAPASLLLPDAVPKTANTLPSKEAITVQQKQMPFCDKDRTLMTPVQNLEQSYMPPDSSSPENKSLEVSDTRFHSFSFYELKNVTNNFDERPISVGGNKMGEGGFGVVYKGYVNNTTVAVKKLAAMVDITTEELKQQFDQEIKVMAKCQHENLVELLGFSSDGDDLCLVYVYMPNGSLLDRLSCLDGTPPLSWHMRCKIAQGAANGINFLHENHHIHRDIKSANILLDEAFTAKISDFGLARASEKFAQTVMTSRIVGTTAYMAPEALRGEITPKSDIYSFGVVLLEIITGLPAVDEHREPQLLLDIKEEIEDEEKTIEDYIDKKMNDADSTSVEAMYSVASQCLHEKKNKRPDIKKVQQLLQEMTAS

Compound: Cc1ccc(F)cc1-c1nc2[nH]nc(N)c2c2c1CCCC2
- Activity [1]: 81%
- Activity [2]: 97%
- Activity [3]: 98%
- Activity [4]: 18%
- Activity [5]: 75%
- Activity [6]: 94%
- Activity [7]: 89%
- Activity [8]: 77%
- Activity [9]: 55%
- Activity [10]: 71%
- Activity [11]: 113%
- Activity [12]: 112%
- Activity [13]: 17%
- Activity [14]: 86%
- Activity [15]: 81%
- Activity [16]: 74%
- Activity [17]: 52%
- Activity [18]: 76%
- Activity [19]: 23%
- Activity [20]: 95%
- Activity [21]: 90%
- Activity [22]: 101%
- Activity [23]: 59%
- Activity [24]: 73%
- Activity [25]: 89%
- Activity [26]: 103%
- Activity [27]: 86%
- Activity [28]: 73%
- Activity [29]: 87%
- Activity [30]: 63%
- Activity [31]: 86%
- Activity [32]: 60%
- Activity [33]: 37%
